{"source": "ChEMBL document CHEMBL5532675", "about": "“Discovery of 4-Ethoxy-6-chloro-5-azaindazoles as Novel PDE4 Inhibitors for the Treatment of Alcohol Use Disorder and Alcoholic Liver Diseases” (J Med Chem, 2024)", "key": {"[1]": {"assay": "AUC (0 to infinity) in Sprague-Dawley rat at 2 mg/kg, iv measured after 24 hrs by LC-MS analysis", "format": "ADME, organism-based", "settings": "in vivo"}, "[2]": {"system": "Mus musculus", "assay": "(§1) Protection against alcoholic liver disease in NIAAA C57BL/6J mouse model assessed as decrease in serum AST level at 1 to 2.5 mg/kg, po preadministered with 1 to 4 % of alcohol for 10 days with subsequent compound addition from day 6 to 11 and further administered with 31.25 % alcohol on day 11 and measured after 9 hrs by absorbance based plate analyzer", "format": "functional, organism-based", "settings": "dose 1-2.5 mg/kg, time 5.0 day"}, "[3]": {"assay": "AUC (0 to infinity) in Sprague-Dawley rat at 10 mg/kg, po measured after 24 hrs by LC-MS analysis", "format": "ADME, organism-based", "settings": "in vivo"}, "[4]": {"assay": "Selectivity ratio for inhibition of PDE9A (unknown origin) using FAM-cyclic-3',5'-AMP as substrate to inhibition of PDE4D7 (unknown origin) using FAM-cyclic-3',5'-AMP as substrate"}, "[5]": {"assay": "Drug concentration in Sprague-Dawley rat liver at 10 mg/kg, po administered as single dose for 1 hrs by LC-MS analysis", "format": "ADME, organism-based", "settings": "read-out: Ct"}, "[6]": {"system": "Mus musculus", "assay": "as §1, with “reduction” for “decrease”, “liver IL-6 mRNA” for “serum AST”, “RT-qPCR analysis” for “absorbance based plate analyzer”", "format": "functional, organism-based", "settings": "dose 1-2.5 mg/kg, time 5.0 day"}, "[7]": {"assay": "Tmax in Sprague-Dawley rat at 10 mg/kg, po measured after 24 hrs by LC-MS analysis", "format": "ADME, organism-based", "settings": "in vivo"}, "[8]": {"system": "Mus musculus", "assay": "as §1, with “reduction” for “decrease”, “liver TNF-alpha mRNA” for “serum AST”, “RT-qPCR analysis” for “absorbance based plate analyzer”", "format": "functional, organism-based", "settings": "dose 1-2.5 mg/kg, time 5.0 day"}, "[9]": {"assay": "Cmax in Sprague-Dawley rat at 2 mg/kg, iv measured after 24 hrs by LC-MS analysis", "format": "ADME, organism-based", "settings": "in vivo"}, "[10]": {"assay": "Toxicity in ketamine/xylazine-induced anesthetic C57BL/6J mouse model assessed as emetogenic potential by measuring reduction in anesthesia duration at 1 to 5 mg/kg, po preadministered with compound for 15 mins followed by ketamine/xylazine administration", "format": "organism-based", "settings": "in vivo, 0.25 h, dose 1-5 mg/kg"}, "[11]": {"system": "Mus musculus", "assay": "Protection against alcohol exposure-induced anxiety like behavior in C57BL/6J mouse model assessed as distance travelled at 1 to 2.5 mg/kg, po pre-trained with alcohol and water for 42 days with subsequent compound addition from day 22 to day 42 followed by 3.5 hrs of darkness and compound administration for 30 mins followed by water replacement with alcohol for 4 hrs and measured 24 hrs after alcohol withdrawal by open field test", "format": "functional, organism-based", "settings": "dose 1-2.5 mg/kg"}, "[12]": {"molecular_target": "T1, 3',5'-cyclic-AMP phosphodiesterase 4D (Homo sapiens, UniProt Q08499)", "T1 sequence (Q08499 whole entry)": "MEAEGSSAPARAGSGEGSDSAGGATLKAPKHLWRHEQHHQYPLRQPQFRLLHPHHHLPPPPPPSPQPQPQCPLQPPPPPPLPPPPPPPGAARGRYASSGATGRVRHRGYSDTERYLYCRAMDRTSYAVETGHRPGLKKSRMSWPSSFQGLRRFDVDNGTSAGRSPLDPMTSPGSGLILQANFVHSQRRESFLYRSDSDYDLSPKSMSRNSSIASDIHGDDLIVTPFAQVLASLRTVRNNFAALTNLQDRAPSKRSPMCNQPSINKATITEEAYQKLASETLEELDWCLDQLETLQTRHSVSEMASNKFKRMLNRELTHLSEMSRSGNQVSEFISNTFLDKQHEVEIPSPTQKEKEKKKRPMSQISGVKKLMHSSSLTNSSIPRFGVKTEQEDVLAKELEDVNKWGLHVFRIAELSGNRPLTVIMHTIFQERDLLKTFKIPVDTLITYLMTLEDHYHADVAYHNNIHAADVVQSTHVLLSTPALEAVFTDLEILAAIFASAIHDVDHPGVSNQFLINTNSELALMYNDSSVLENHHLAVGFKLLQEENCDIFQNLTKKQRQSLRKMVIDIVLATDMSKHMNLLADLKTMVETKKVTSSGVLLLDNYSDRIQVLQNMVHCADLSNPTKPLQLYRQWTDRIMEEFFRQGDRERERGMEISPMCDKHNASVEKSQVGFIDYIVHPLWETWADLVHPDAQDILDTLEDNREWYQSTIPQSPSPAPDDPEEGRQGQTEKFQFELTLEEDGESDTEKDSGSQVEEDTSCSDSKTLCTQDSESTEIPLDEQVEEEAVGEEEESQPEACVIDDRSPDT", "assay": "Inhibition of PDE4D7 (unknown origin) using FAM-cyclic-3',5'-AMP as substrate incubated for 1 hrs by fluorescence polarization based IMAP assay"}, "[13]": {"molecular_target": "T1, 3',5'-cyclic-AMP phosphodiesterase 4D", "assay": "Inhibition of PDE4D7 (unknown origin) using FAM-cyclic-3',5'-AMP as substrate at 10 nM incubated for 1 hrs by fluorescence polarization based IMAP assay relative to control"}, "[14]": {"assay": "Selectivity ratio for inhibition of PDE7A (unknown origin) using FAM-cyclic-3',5'-AMP as substrate to inhibition of PDE4B1 (unknown origin) using FAM-cyclic-3',5'-AMP as substrate"}, "[15]": {"system": "Mus musculus", "assay": "as §1, with “reduction” for “decrease”, “IL1-beta” for “AST”, “ELISA” for “absorbance based plate analyzer”", "format": "functional, organism-based", "settings": "dose 1-2.5 mg/kg, time 5.0 day"}, "[16]": {"assay": "Selectivity ratio for inhibition of PDE8A1 (unknown origin) using FAM-cyclic-3',5'-AMP as substrate to inhibition of PDE4B1 (unknown origin) using FAM-cyclic-3',5'-AMP as substrate"}, "[17]": {"system": "Mus musculus", "assay": "as §1, with “improvement of liver injury” for “decrease in serum AST level”, “H&E staining” for “absorbance”, “light microscopic analysis” for “plate analyzer”", "format": "functional, organism-based", "settings": "dose 1-2.5 mg/kg, time 5.0 day"}, "[18]": {"assay": "Volume of distribution at steady state in Sprague-Dawley rat at 2 mg/kg, iv measured after 24 hrs by LC-MS analysis", "format": "ADME, organism-based", "settings": "in vivo, read-out: Vdss"}, "[19]": {"assay": "Selectivity ratio for inhibition of PDE3B (unknown origin) using FAM-cyclic-3',5'-AMP as substrate to inhibition of PDE4D7 (unknown origin) using FAM-cyclic-3',5'-AMP as substrate"}, "[20]": {"assay": "Chemical stability of compound in aqueous solution at pH >10 measured after 48 hrs", "format": "physicochemical", "settings": "buffer"}, "[21]": {"system": "SH-SY5Y", "assay": "Cytotoxicity against human SH-SY5Y cells assessed as reduction in cell viability incubated for 48 hrs by MTT assay", "format": "toxicity, cell-based"}, "[22]": {"system": "Mus musculus", "assay": "as §1, with “improvement of liver injury” for “decrease in serum AST level”, “Oil Red O staining” for “absorbance”, “light microscopic analysis” for “plate analyzer”", "format": "functional, organism-based", "settings": "dose 1-2.5 mg/kg, time 5.0 day"}, "[23]": {"system": "HT-22", "assay": "Cytotoxicity against mouse HT-22 cells assessed as reduction in cell viability incubated for 48 hrs by MTT assay", "format": "toxicity, cell-based", "settings": "ht-22, 48 h"}, "[24]": {"assay": "Drug concentration in Sprague-Dawley rat plasma at 10 mg/kg, po administered as single dose for 1 hrs by LC-MS analysis", "format": "ADME, organism-based"}, "[25]": {"system": "Mus musculus", "assay": "Protection against alcohol-induced motor impairment in C57BL/6J mouse model assessed as recovery of average speed at 1 to 2.5 mg/kg, po preadministered with compound every 24 hrs for 3 times followed by alcohol administration 30 mins post last dose and further treated with compound for 3 days followed by alcohol administration 30 mins post last dose and measured at 2 to 20 mins by open field test", "format": "functional, organism-based", "settings": "dose 1-2.5 mg/kg, time 8702-8720 min"}, "[26]": {"assay": "Drug concentration in Sprague-Dawley rat brain at 10 mg/kg, po administered as single dose for 1 hrs by LC-MS analysis", "format": "ADME, organism-based", "settings": "read-out: Ct"}, "[27]": {"assay": "Chemical stability of compound in aqueous solution at pH <6 measured after 48 hrs", "format": "physicochemical", "settings": "buffer"}, "[28]": {"system": "Mus musculus", "assay": "as §1, with “ALT” for “AST”", "format": "functional, organism-based", "settings": "dose 1-2.5 mg/kg, time 5.0 day"}, "[29]": {"assay": "Clearance in Sprague-Dawley rat at 2 mg/kg, iv measured after 24 hrs by LC-MS analysis", "format": "ADME, organism-based", "settings": "in vivo"}, "[30]": {"assay": "Half-life in Sprague-Dawley rat at 2 mg/kg, iv measured after 24 hrs by LC-MS analysis", "format": "ADME, organism-based", "settings": "in vivo"}, "[31]": {"assay": "Selectivity ratio for inhibition of PDE8A1 (unknown origin) using FAM-cyclic-3',5'-AMP as substrate to inhibition of PDE4D7 (unknown origin) using FAM-cyclic-3',5'-AMP as substrate"}, "[32]": {"system": "Mus musculus", "assay": "Protection against alcohol use disorder in C57BL/6J mouse model assessed as decrease in alcohol intake at 1 to 2.5 mg/kg, po pre-trained with alcohol and water for 42 days with subsequent compound addition on day 22 and measured after 3 weeks by two-bottle choice test", "format": "functional, organism-based", "settings": "dose 1-2.5 mg/kg"}, "[33]": {"molecular_target": "High affinity 3',5'-cyclic-AMP phosphodiesterase 7A (Homo sapiens) (UniProt Q13946)", "sequence (Q13946 whole entry)": "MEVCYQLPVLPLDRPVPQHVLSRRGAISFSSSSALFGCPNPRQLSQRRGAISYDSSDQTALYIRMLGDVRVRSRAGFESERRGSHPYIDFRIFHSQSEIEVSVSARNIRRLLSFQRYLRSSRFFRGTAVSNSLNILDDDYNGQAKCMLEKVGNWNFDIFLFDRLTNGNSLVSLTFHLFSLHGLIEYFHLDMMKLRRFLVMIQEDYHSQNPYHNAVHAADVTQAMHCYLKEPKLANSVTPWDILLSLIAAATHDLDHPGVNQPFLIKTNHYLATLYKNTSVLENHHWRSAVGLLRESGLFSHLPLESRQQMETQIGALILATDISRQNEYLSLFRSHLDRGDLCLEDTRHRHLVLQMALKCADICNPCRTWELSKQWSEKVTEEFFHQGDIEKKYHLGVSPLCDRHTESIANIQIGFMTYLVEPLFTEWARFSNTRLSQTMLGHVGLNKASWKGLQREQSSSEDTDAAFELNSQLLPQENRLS", "assay": "Inhibition of PDE7A (unknown origin) using FAM-cyclic-3',5'-AMP as substrate at 10 uM incubated for 1 hrs by fluorescence polarization based IMAP assay relative to control"}, "[34]": {"assay": "Cmax in Sprague-Dawley rat at 10 mg/kg, po measured after 24 hrs by LC-MS analysis", "format": "ADME, organism-based", "settings": "in vivo"}}, "note": "pIC50: −log10 of the molar value. Activity calls are given as the source filed them. No cut-off for these calls is given here."}
{"smiles": "CCOc1nc(Cl)cc2c1cnn2CCCC(=O)O", "values": [{"measurement": "AUC(0-inf)", "setting": "[1]", "value": 143, "unit": "µg·h/mL"}, {"measurement": "Activity", "setting": "[2]", "value": "Active"}, {"measurement": "AUC(0-inf)", "setting": "[3]", "value": 828, "unit": "µg·h/mL"}, {"measurement": "Selectivity ratio", "setting": "[4]", "value": "> 267"}, {"measurement": "concentration at 1 h", "setting": "[5]", "value": 11200, "unit": "ng/g"}, {"measurement": "Activity", "setting": "[6]", "value": "Active"}, {"measurement": "Tmax", "setting": "[7]", "value": 4, "unit": "h"}, {"measurement": "Activity", "setting": "[8]", "value": "Active"}, {"measurement": "Cmax", "setting": "[9]", "value": 23200, "unit": "ng/mL"}, {"measurement": "Activity", "setting": "[10]", "value": "Non-Toxic"}, {"measurement": "Activity", "setting": "[11]", "value": "Active"}, {"measurement": "pIC50", "setting": "[12]", "value": 7.43}, {"measurement": "inhibition", "setting": "[13]", "value": 21, "unit": "%"}, {"measurement": "Selectivity ratio", "setting": "[14]", "value": "> 267"}, {"measurement": "Activity", "setting": "[15]", "value": "Active"}, {"measurement": "Selectivity ratio", "setting": "[16]", "value": "> 267"}, {"measurement": "Activity", "setting": "[17]", "value": "Active"}, {"measurement": "Vd", "setting": "[18]", "value": 0.0719, "unit": "L/kg"}, {"measurement": "Selectivity ratio", "setting": "[19]", "value": "> 267"}, {"measurement": "Stability", "setting": "[20]", "value": "Stable"}, {"measurement": "Activity", "setting": "[21]", "value": "Non-Toxic"}, {"measurement": "Activity", "setting": "[22]", "value": "Active"}, {"measurement": "Activity", "setting": "[23]", "value": "Non-Toxic"}, {"measurement": "concentration at 1 h", "setting": "[24]", "value": 19500, "unit": "ng/mL"}, {"measurement": "Activity", "setting": "[25]", "value": "Active"}, {"measurement": "concentration at 1 h", "setting": "[26]", "value": 322, "unit": "ng/g"}, {"measurement": "Stability", "setting": "[27]", "value": "Stable"}, {"measurement": "Activity", "setting": "[28]", "value": "Active"}, {"measurement": "clearance", "setting": "[29]", "value": 0.211, "unit": "mL/min/kg"}, {"measurement": "half-life", "setting": "[30]", "value": 3.65, "unit": "h"}, {"measurement": "Selectivity ratio", "setting": "[31]", "value": "> 267"}, {"measurement": "Activity", "setting": "[32]", "value": "Active"}, {"measurement": "inhibition", "setting": "[33]", "value": 11, "unit": "%"}, {"measurement": "Cmax", "setting": "[34]", "value": 43300, "unit": "ng/mL"}]}
